# Experimental data from ChEMBL document CHEMBL1201862, “PubChem BioAssay data set” (2004).
# Active and inactive are the calls of the source.
# Assays:
# [1] = biological target: Photoreceptor-specific nuclear receptor (Homo sapiens, UniProt Q9Y5X4); format: functional, cell-based;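 note: CHO-S cells with Gal4-NCOR and VP16-NR2E3 two-hybrid luciferase reporter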
# [2] = biological target: T1, Probable nicotinate-nucleotide adenylyltransferase (Staphylococcus aureus (strain N315), UniProt P65502); format: functional, Staphylococcus aureus subsp. aureus N315;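 for IC50 Mean: confirmatory dose-response retesting of NadD inhibitor hits first found in an ultra-high-throughput screen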
# [3] = biological target: T1, Probable nicotinate-nucleotide adenylyltransferase; format: functional, Staphylococcus aureus subsp. aureus N315; conditions: read-out: IC50_Mean
# [4] = biological target: T2, Voltage-gated N-type calcium channel alpha-1B subunit/Amyloid beta A4 precursor protein-binding family A member 1 (Homo sapiens, UniProt Q00975+Q02410); format: protein assay
# [5] = biological target: T2, Voltage-gated N-type calcium channel alpha-1B subunit/Amyloid beta A4 precursor protein-binding family A member 1; format: protein assay; remark: listed apart in the source
# HEK293 = experiment: EBV LMP1 TES2 canonical NF-kB signalling blockers – cell-based, HEK293, luciferase, cherry-pick, dose response (AID 588343); format: functional; conditions: Homo sapiens
# [6] = biological target: T3, Carboxy-terminal domain RNA polymerase II polypeptide A small phosphatase 1 (Homo sapiens, UniProt Q9GZU7); experiment: CTDSP1 inhibitors, concentration-response, biochemical, absorbance readout, ultra-high-throughput screen actives (AID 540297); format: functional
# T3 sequence (Q9GZU7 whole entry): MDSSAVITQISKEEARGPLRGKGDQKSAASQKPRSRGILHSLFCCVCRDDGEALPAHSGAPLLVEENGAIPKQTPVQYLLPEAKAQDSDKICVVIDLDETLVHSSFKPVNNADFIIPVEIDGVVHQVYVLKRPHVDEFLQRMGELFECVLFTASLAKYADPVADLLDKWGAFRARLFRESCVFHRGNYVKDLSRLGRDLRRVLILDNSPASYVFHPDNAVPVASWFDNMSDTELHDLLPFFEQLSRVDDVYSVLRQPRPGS
# [7] = biological target: T4, Low molecular weight phosphotyrosine protein phosphatase (Homo sapiens, UniProt P24666); format: functional; conditions: read-out: IC50_Mean
# T4 sequence (P24666 whole entry): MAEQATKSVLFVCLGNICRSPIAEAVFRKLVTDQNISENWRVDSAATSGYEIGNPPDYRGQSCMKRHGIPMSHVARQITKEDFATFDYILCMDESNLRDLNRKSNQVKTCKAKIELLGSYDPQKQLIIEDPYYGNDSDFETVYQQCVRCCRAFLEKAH
# [8] = biological target: Fructose-bisphosphate aldolase (Mycobacterium tuberculosis, UniProt P9WQA3); experiment: Fluorescence-based biochemical high throughput dose response assay for inhibitors of the fructose-bisphosphate aldolase (FBA) of M. tuberculosis.; format: functional
# [9] = Fluorescence-based cell-based high throughput dose response assay for inhibitors of the interaction of nucleotide-binding oligomerization domain containing 2 (NOD2) and the receptor-interacting serine-threonine kinase 2 (RIPK2).; format: functional; conditions: Homo sapiens
# [10] = viability loss in HeLa cells – cytotoxicity control for MgcRacGAP inhibitor project, dose response (AID 624300); format: functional
# [11] = biological target: T5, Rac GTPase-activating protein 1 (Homo sapiens, UniProt Q9H0H5); experiment: blockers of MgcRacGAP-driven Rac1 GTP hydrolysis – biochemical, ADP Hunter fluorescence, primary and confirmatory, confirmation (AID 624330); format: functional
# T5 sequence (Q9H0H5 whole entry): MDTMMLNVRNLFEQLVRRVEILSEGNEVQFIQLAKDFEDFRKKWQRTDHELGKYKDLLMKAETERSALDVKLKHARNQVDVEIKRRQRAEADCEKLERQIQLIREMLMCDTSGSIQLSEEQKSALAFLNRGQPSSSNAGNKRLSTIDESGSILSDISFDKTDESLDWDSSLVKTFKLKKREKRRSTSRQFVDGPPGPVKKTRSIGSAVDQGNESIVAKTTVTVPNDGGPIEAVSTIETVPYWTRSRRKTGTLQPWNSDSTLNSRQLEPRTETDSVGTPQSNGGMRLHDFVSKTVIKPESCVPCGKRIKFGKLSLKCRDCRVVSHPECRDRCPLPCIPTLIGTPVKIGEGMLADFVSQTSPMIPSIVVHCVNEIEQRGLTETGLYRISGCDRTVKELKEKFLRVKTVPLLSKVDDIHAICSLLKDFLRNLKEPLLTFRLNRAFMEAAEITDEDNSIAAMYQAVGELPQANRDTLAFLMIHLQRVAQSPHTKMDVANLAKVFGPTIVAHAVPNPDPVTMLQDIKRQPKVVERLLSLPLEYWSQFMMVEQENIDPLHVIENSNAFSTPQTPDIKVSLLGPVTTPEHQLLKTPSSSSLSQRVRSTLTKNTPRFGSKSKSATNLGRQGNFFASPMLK
# [12] = biological target: T6, Short transient receptor potential channel 4 (Mus musculus, UniProt Q9QUQ5); experiment: block of DAMGO-driven TRPC4 calcium entry – cell-based, HEK293 TRPC4/mu-opioid, Fluo-4 calcium, dose response (AID 434942); format: functional;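 note: potency of inhibitors blocking the TRPC4 calcium response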
# T6 sequence (Q9QUQ5 whole entry): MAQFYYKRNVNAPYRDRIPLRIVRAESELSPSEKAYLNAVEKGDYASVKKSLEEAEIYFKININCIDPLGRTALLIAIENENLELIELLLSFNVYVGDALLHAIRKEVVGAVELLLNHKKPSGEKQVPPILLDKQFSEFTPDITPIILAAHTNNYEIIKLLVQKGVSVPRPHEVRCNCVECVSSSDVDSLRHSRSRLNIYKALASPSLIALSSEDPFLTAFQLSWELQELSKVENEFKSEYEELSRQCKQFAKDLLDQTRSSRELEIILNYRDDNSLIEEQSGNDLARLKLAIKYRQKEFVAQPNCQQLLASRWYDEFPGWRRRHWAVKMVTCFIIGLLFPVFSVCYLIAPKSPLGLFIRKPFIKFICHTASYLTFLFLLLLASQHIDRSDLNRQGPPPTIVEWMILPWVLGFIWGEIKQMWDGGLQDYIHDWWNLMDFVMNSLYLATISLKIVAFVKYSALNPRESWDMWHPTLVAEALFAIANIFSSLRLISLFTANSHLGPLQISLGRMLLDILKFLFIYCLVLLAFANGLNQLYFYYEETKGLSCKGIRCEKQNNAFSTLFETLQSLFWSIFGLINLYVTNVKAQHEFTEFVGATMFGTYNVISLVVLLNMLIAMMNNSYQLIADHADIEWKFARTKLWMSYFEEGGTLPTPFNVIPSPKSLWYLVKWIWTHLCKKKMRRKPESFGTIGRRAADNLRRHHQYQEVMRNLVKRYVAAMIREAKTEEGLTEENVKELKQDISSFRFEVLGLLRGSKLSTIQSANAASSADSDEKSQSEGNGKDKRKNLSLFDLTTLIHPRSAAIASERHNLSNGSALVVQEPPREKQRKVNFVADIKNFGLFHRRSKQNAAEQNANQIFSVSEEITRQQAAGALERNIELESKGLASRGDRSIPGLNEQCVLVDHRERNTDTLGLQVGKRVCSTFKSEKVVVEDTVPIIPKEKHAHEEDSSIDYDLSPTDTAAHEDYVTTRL
# INS1 = experiment: INS-1E survival protection against cytokine death – cell-based, luminescence, retest, dose response (AID 449756); format: functional; conditions: Rattus norvegicus;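 note: cell death triggered by IL-1 beta plus TNF-alpha plus IFN-gamma mixture; protective hits raise ATP signal compared with cytokine alone wells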
# Protein Wnt-3a = Protein Wnt-3a (Mus musculus, UniProt P27467); experiment: antagonism of Wnt3a pathway luciferase reporter – Wnt-LIGHT cells, luminescence, selectivity assay for Gli-SUFU antagonist project, dose response (AID 651570); format: functional; conditions: read-out: IC50_Mean;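 note: Wnt-LIGHT reporter cells stimulated with conditioned medium from Wnt3a-producing cells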
# Galanin receptor type 3 = biological target: T7, Galanin receptor type 3 (Homo sapiens, UniProt O60755); experiment: Fluorescence-based cell-based primary high throughput dose response assay to identify antagonists of the Galanin Receptor 3 (GalR3).; format: functional
# T7 sequence (O60755 whole entry): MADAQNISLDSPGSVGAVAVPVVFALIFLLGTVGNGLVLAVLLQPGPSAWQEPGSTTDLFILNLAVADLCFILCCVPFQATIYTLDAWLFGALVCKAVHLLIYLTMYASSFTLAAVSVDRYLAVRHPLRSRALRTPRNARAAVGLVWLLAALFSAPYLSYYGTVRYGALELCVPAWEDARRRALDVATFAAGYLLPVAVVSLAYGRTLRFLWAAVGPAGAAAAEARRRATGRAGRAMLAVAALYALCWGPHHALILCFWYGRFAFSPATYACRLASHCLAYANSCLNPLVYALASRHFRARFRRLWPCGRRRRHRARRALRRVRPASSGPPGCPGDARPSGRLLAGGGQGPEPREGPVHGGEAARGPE
# cells = format: functional, cell-based; conditions: HEK-CNG
# [13] = biological target: T8, COUP transcription factor 2 (Homo sapiens, UniProt P24468); experiment: Luminescence-based cell-based high throughput dose response assay to identify inhibitors of COUP-TFII (NR2F2).; format: functional;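 note: HEK293 cells transiently cotransfected with COUP-TFII expression vector and reporter; luciferase reporter luminescence driven by COUP-TFII from the pX2-168 reporter plasmid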
# T8 sequence (P24468 whole entry): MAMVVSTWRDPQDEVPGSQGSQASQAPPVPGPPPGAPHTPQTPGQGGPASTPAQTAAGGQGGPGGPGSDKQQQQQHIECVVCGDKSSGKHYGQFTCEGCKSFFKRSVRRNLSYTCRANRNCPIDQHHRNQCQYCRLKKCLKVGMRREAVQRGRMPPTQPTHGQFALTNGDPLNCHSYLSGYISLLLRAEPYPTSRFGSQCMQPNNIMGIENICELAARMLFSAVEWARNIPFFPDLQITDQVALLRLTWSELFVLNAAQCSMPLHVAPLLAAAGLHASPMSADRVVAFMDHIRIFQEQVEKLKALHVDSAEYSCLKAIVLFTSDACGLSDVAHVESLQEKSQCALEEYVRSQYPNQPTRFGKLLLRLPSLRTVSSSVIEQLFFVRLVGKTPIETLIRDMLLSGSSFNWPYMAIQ
# T1 sequence (P65502 whole entry): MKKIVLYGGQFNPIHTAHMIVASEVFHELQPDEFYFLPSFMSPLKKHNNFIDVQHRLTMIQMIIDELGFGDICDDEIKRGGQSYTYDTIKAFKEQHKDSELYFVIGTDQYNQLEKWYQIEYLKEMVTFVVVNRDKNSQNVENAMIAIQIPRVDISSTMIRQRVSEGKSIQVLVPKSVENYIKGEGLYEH
# T2 sequence (Q00975 whole entry): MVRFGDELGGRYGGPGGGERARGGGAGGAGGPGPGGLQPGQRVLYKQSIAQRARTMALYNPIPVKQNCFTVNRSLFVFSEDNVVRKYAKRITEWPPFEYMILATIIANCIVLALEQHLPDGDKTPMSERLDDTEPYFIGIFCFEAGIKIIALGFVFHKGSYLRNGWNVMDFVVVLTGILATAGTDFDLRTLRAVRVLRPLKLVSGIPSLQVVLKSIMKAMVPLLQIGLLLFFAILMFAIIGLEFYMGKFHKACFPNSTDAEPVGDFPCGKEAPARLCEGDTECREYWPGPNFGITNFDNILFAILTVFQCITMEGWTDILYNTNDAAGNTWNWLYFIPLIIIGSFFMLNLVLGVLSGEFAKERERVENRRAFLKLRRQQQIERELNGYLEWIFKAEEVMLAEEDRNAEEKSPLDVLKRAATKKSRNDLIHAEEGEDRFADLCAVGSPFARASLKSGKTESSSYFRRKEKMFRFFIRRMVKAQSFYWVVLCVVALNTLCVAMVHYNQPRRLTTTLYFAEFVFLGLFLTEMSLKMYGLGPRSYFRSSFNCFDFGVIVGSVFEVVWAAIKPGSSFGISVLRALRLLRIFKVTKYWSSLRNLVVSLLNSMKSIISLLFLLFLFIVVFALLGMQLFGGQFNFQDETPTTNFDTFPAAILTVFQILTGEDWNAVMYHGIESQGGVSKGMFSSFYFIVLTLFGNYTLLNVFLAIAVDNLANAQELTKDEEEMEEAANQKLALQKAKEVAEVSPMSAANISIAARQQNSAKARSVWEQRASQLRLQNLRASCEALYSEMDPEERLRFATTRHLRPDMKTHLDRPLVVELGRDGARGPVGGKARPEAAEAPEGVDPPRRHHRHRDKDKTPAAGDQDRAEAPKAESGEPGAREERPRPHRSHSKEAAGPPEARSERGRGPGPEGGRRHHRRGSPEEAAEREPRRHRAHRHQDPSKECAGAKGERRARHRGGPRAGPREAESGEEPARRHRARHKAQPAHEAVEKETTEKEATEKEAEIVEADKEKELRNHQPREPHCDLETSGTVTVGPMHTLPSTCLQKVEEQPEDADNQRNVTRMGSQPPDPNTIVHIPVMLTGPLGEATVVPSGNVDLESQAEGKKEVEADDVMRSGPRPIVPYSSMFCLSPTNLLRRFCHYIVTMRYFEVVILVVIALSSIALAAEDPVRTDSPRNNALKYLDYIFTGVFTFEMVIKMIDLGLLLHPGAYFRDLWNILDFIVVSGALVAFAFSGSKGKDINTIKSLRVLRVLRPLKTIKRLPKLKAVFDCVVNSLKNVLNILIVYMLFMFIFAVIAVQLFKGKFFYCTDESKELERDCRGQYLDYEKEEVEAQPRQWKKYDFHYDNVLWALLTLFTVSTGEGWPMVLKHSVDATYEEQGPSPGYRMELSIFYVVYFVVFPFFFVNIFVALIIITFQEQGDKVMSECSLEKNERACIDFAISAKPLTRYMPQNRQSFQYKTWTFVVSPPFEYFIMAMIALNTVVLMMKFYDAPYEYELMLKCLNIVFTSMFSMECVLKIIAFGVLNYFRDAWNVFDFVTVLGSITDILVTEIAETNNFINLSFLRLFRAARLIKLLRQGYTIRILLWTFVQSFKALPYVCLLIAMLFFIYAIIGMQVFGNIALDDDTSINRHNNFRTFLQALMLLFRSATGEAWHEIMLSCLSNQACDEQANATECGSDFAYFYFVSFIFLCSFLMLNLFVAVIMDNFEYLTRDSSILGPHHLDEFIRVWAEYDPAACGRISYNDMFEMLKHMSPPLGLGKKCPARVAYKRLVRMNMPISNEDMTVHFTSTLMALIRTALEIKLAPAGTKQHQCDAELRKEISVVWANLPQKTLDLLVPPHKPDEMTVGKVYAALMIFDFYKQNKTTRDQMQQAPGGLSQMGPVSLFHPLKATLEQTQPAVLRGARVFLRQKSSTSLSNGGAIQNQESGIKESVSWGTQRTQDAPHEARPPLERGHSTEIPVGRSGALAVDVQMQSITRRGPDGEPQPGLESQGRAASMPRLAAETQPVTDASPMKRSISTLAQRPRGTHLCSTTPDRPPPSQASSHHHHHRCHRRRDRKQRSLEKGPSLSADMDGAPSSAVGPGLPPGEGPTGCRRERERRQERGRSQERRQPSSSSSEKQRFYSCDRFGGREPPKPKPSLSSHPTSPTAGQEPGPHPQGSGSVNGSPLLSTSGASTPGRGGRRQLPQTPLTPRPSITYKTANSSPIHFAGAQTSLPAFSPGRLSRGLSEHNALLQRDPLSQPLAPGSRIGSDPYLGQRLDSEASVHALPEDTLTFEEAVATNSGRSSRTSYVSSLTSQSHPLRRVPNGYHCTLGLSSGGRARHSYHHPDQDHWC
# T2 sequence (Q02410 whole entry): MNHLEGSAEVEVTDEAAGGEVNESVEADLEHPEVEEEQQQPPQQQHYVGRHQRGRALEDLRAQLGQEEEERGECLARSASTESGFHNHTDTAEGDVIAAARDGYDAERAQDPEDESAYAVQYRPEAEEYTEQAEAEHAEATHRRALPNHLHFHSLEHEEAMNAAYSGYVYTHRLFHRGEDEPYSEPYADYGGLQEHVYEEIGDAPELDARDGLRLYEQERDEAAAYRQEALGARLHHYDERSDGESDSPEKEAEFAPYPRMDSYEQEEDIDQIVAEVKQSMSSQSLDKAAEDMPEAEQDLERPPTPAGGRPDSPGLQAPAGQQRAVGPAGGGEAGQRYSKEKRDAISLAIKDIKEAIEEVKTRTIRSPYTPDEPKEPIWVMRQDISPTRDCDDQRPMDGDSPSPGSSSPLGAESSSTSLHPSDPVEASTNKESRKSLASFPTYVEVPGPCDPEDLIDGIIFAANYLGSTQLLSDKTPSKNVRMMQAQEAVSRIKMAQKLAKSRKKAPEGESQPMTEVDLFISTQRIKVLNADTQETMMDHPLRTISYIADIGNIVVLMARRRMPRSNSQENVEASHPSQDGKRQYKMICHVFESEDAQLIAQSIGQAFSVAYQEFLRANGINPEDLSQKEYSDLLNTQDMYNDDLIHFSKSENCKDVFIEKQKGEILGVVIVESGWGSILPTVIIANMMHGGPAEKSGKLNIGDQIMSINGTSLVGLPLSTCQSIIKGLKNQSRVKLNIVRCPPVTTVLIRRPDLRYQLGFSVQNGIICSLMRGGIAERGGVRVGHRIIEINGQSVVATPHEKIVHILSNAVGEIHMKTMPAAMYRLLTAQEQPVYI
# Chain of Fructose-bisphosphate aldolase (P9WQA3 whole entry, the tested form may be a part): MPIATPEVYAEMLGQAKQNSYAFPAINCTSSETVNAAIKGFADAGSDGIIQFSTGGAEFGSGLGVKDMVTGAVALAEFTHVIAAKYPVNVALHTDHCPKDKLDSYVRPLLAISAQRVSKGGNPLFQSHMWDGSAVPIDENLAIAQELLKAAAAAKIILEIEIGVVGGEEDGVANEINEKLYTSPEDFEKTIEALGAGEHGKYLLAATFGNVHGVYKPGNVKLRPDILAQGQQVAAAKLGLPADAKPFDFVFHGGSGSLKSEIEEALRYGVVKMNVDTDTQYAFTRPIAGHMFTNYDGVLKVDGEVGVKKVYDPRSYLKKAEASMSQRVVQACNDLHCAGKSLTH
# Chain of Protein Wnt-3a (P27467 whole entry): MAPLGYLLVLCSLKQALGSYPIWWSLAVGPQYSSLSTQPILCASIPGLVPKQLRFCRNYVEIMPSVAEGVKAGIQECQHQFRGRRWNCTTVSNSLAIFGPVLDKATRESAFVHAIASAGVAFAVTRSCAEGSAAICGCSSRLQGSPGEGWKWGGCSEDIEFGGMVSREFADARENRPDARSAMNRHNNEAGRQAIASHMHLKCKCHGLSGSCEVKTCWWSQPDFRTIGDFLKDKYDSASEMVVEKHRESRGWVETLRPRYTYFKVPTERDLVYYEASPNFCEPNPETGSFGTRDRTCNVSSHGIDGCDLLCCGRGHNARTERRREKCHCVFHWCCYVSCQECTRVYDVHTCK
# Chain of Photoreceptor-specific nuclear receptor (Q9Y5X4 whole entry, the tested form may be a part): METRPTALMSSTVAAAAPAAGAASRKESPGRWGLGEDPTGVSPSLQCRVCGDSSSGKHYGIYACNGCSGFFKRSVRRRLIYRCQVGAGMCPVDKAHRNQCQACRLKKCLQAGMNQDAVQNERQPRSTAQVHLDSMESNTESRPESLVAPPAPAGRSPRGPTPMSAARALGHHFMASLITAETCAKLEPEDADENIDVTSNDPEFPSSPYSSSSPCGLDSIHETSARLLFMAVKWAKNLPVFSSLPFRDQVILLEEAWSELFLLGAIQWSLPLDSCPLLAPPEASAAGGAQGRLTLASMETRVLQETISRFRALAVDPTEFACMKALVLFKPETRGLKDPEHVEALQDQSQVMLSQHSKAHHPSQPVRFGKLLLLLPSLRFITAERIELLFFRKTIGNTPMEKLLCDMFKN
compound,measurement,setting,value
CC(C)(C)c1ccc(CSc2nc(N)cc(O)n2)cc1,IC50,[1],5.21 µM (active)
Cc1ccccc1C(=O)Nc1cc[n+](-c2nc3ccccc3nc2[N-]S(=O)(=O)c2ccc(F)cc2)cc1,IC50,[2],5.96 µM (active)
same,IC50,[3],23.8 µM (active)
COc1ccc2cc3c(N)nn(C(=O)c4cccc([N+](=O)[O-])c4)c3nc2c1,IC50,[4],12.2 µM (active)
same,IC50,[5],> 50 µM (inactive)
same,AC50,HEK293,3.08 µM (active)
same,IC50,[6],4.35 µM (active)
same,IC50,[7],19.1 µM (active)
Cc1ccc(-n2nc3ccc(N)cc3n2)cc1C,IC50,[8],0.895 µM (active)
CN(C)CCC(=O)N1C/C(=C/c2ccccc2)C(=O)/C(=C\c2ccccc2)C1,IC50,[9],3.78 µM (active)
same,CC50,[10],25 µM (active)
same,IC50,[11],167 µM (active)
Cc1nc2ccccc2n1Cc1ccc(Br)cc1,EC50,[12],0.668 µM (active)
same,AC50,INS1,2.84 µM (active)
same,IC50,Protein Wnt-3a,0.369 µM (active)
same,IC50,Galanin receptor type 3,0.14 µM (active)
same,EC50,cells,> 29.9 µM (inactive)
same,IC50,[13],4.4 µM (active)
